Data: ChEMBL document CHEMBL3885861, “Open TG-GATES”

Species: Rattus norvegicus
Experiment: Open TG-GATES - Regimen: Single
Assay type: toxicity, organism-based, Sprague-Dawley
Parameters: regimen Single, gender Male, age 6 weeks
Settings: in vivo, po, route gavage; for TC / TG / TP / gamma-GTP / ALT / AST / CRE / Ca / DBIL / GLC / K / LDH / Na / PL / RALB / TBIL / Cl / ALP: tissue Plasma; for Bas / Eos / Fbg / Hb / Ht / Lym / MCHC / MCV / Mono / PT / Plat / RBC / WBC / APTT: tissue Blood; for KIDNEY_L / KIDNEY_R / KIDNEY_TOTAL: tissue Kidney; for LIVER: tissue Liver
[1] = 240 mg/kg, 3 h, dose level Middle
[2] = 240 mg/kg, 6 h, dose level Middle
[3] = 240 mg/kg, 9 h, dose level Middle
[4] = 240 mg/kg, 24 h, dose level Middle
[5] = 800 mg/kg, 3 h, dose level High
[6] = 800 mg/kg, 6 h, dose level High
[7] = 800 mg/kg, 9 h, dose level High
[8] = 800 mg/kg, 24 h, dose level High

COc1ccc([C@@H]2Sc3ccccc3N(CCN(C)C)C(=O)[C@@H]2OC(C)=O)cc1 [DILTIAZEM]
TC (80 mg/kg, 24 h, dose level Low): 78.2 mg/dL | TG (80 mg/kg, 24 h, dose level Low): 67.8 mg/dL | TP (80 mg/kg, 24 h, dose level Low): 5.5 g/dL | gamma-GTP (80 mg/kg, 24 h, dose level Low): 1 IU/L | TERMINAL_BW [1]: 186.7 g | Bas [1]: 0% | Eos [1]: 0.8% | Fbg [1]: 284.8 mg/dL | Hb [1]: 12.6 g/dL | Ht [1]: 38.9% | Lym [1]: 75% | MCHC [1]: 32.3% | MCV [1]: 65.9 fL | Mono [1]: 3.2% | PT [1]: 14.7 s | Plat [1]: 119.4 x10_4/uL | RBC [1]: 588.8 x10_4/ul | WBC [1]: 87.8 x10_2/uL | KIDNEY_L [1]: 0.9 g | KIDNEY_R [1]: 0.9 g | KIDNEY_TOTAL [1]: 1.7 g | LIVER [1]: 8.4 g | ALT [1]: 45.2 IU/L | AST [1]: 84 IU/L | CRE [1]: 0.2 mg/dL | Ca [1]: 10.8 mg/dL | DBIL [1]: 0.012 mg/dL | GLC [1]: 186.4 mg/dL | K [1]: 4.4 meq/L | LDH [1]: 70.4 IU/L | Na [1]: 142 meq/L | PL [1]: 136.8 mg/dL | RALB [1]: 2.5 g/dL | TBIL [1]: 0.03 mg/dL | TC [1]: 75 mg/dL | TG [1]: 58 mg/dL | TP [1]: 5.2 g/dL | gamma-GTP [1]: 1 IU/L | TERMINAL_BW [2]: 187.5 g | Bas [2]: 0% | Eos [2]: 0.8% | Fbg [2]: 303.8 mg/dL | Ht [2]: 40.7% | Lym [2]: 80% | MCHC [2]: 32% | MCV [2]: 67.1 fL | Mono [2]: 3% | PT [2]: 14.7 s | Plat [2]: 120.8 x10_4/uL | RBC [2]: 608.2 x10_4/ul | WBC [2]: 79.2 x10_2/uL | KIDNEY_L [2]: 0.9 g | KIDNEY_R [2]: 0.8 g | KIDNEY_TOTAL [2]: 1.7 g | LIVER [2]: 8.1 g | ALT [2]: 44.8 IU/L | AST [2]: 73.4 IU/L | CRE [2]: 0.2 mg/dL | Ca [2]: 10.9 mg/dL | Cl [2]: 106.6 meq/L | DBIL [2]: 0.014 mg/dL | GLC [2]: 182.8 mg/dL | K [2]: 4.2 meq/L | LDH [2]: 54.4 IU/L | Na [2]: 142.8 meq/L | PL [2]: 153.6 mg/dL | RALB [2]: 2.6 g/dL | TBIL [2]: 0.034 mg/dL | TC [2]: 86.2 mg/dL | TG [2]: 47.2 mg/dL | TP [2]: 5.3 g/dL | gamma-GTP [2]: 1.2 IU/L | TERMINAL_BW [3]: 182 g | APTT [3]: 17.3 s | Bas [3]: 0.2% | Eos [3]: 0.8% | Fbg [3]: 305.8 mg/dL | Hb [3]: 12.9 g/dL | Ht [3]: 40.1% | Lym [3]: 78.6% | MCHC [3]: 32.2% | MCV [3]: 67 fL | Mono [3]: 2.6% | PT [3]: 14.8 s | Plat [3]: 121.1 x10_4/uL | RBC [3]: 599.4 x10_4/ul | WBC [3]: 83.9 x10_2/uL | KIDNEY_L [3]: 0.9 g | KIDNEY_R [3]: 0.9 g | KIDNEY_TOTAL [3]: 1.7 g | LIVER [3]: 7.9 g | ALT [3]: 41.8 IU/L | AST [3]: 71.8 IU/L | CRE [3]: 0.1 mg/dL | Ca [3]: 10.7 mg/dL | Cl [3]: 105.6 meq/L | DBIL [3]: 0.012 mg/dL | GLC [3]: 171.6 mg/dL | K [3]: 4.1 meq/L | LDH [3]: 50.8 IU/L | Na [3]: 143 meq/L | PL [3]: 150.4 mg/dL | RALB [3]: 2.5 g/dL | TBIL [3]: 0.028 mg/dL | TC [3]: 82 mg/dL | TG [3]: 45.8 mg/dL | TP [3]: 5.2 g/dL | gamma-GTP [3]: 1 IU/L | TERMINAL_BW [4]: 196.9 g | Bas [4]: 0% | Eos [4]: 1% | Fbg [4]: 271.8 mg/dL | Hb [4]: 13 g/dL | Ht [4]: 39.6% | Lym [4]: 75.6% | MCHC [4]: 32.9% | MCV [4]: 64.6 fL | Mono [4]: 2.8% | PT [4]: 14.8 s | Plat [4]: 120 x10_4/uL | RBC [4]: 614.2 x10_4/ul | WBC [4]: 85.8 x10_2/uL | KIDNEY_L [4]: 0.9 g | KIDNEY_R [4]: 0.9 g | KIDNEY_TOTAL [4]: 1.8 g | LIVER [4]: 9.5 g | ALT [4]: 51 IU/L | AST [4]: 76.2 IU/L | CRE [4]: 0.2 mg/dL | Ca [4]: 11.2 mg/dL | Cl [4]: 106.8 meq/L | DBIL [4]: 0.018 mg/dL | GLC [4]: 173.6 mg/dL | K [4]: 4.2 meq/L | LDH [4]: 82.4 IU/L | Na [4]: 144.4 meq/L | PL [4]: 150.4 mg/dL | RALB [4]: 2.7 g/dL | TBIL [4]: 0.022 mg/dL | TC [4]: 81.2 mg/dL | TG [4]: 95.8 mg/dL | TP [4]: 5.5 g/dL | gamma-GTP [4]: 1.2 IU/L | TERMINAL_BW [5]: 189.3 g | Bas [5]: 0% | Eos [5]: 0.4% | Fbg [5]: 277.6 mg/dL | Hb [5]: 12.7 g/dL | Ht [5]: 39.2% | Lym [5]: 69.6% | MCHC [5]: 32.5% | MCV [5]: 65.1 fL | Mono [5]: 4.4% | PT [5]: 14.6 s | Plat [5]: 121.1 x10_4/uL | RBC [5]: 601.6 x10_4/ul | WBC [5]: 95.2 x10_2/uL | KIDNEY_L [5]: 0.8 g | KIDNEY_R [5]: 0.9 g | KIDNEY_TOTAL [5]: 1.7 g | LIVER [5]: 8.3 g | ALT [5]: 52.6 IU/L | AST [5]: 92 IU/L | CRE [5]: 0.2 mg/dL | Ca [5]: 10.7 mg/dL | Cl [5]: 103.8 meq/L | DBIL [5]: 0.008 mg/dL | GLC [5]: 193 mg/dL | K [5]: 4.4 meq/L | LDH [5]: 64.4 IU/L | Na [5]: 140.8 meq/L | PL [5]: 137.2 mg/dL | RALB [5]: 2.5 g/dL | TBIL [5]: 0.028 mg/dL | TC [5]: 76.8 mg/dL | TG [5]: 48.4 mg/dL | TP [5]: 5.2 g/dL | gamma-GTP [5]: 1 IU/L | TERMINAL_BW [6]: 185.7 g | APTT [6]: 17.5 s | Bas [6]: 0.4% | Eos [6]: 0.8% | Fbg [6]: 311 mg/dL | Hb [6]: 13.3 g/dL | Ht [6]: 41.5% | Lym [6]: 77.6% | MCHC [6]: 32.1% | MCV [6]: 66 fL | Mono [6]: 3.2% | PT [6]: 14.7 s | Plat [6]: 126.6 x10_4/uL | RBC [6]: 629 x10_4/ul | WBC [6]: 95.6 x10_2/uL | KIDNEY_L [6]: 0.8 g | KIDNEY_R [6]: 0.8 g | KIDNEY_TOTAL [6]: 1.7 g | LIVER [6]: 7.8 g | ALT [6]: 45 IU/L | AST [6]: 74.6 IU/L | CRE [6]: 0.2 mg/dL | Ca [6]: 10.7 mg/dL | DBIL [6]: 0.008 mg/dL | GLC [6]: 176 mg/dL | K [6]: 4 meq/L | LDH [6]: 59.2 IU/L | Na [6]: 143 meq/L | PL [6]: 158.8 mg/dL | RALB [6]: 2.5 g/dL | TBIL [6]: 0.032 mg/dL | TC [6]: 91.8 mg/dL | TG [6]: 40.6 mg/dL | TP [6]: 5.2 g/dL | gamma-GTP [6]: 1 IU/L | TERMINAL_BW [7]: 185.3 g | Bas [7]: 0% | Eos [7]: 0.8% | Fbg [7]: 316.2 mg/dL | Hb [7]: 12.6 g/dL | Ht [7]: 38.6% | Lym [7]: 74.8% | MCHC [7]: 32.6% | MCV [7]: 62.9 fL | Mono [7]: 2.8% | PT [7]: 14.7 s | Plat [7]: 132.9 x10_4/uL | RBC [7]: 613 x10_4/ul | WBC [7]: 97 x10_2/uL | KIDNEY_L [7]: 0.8 g | KIDNEY_R [7]: 0.8 g | KIDNEY_TOTAL [7]: 1.6 g | LIVER [7]: 7.2 g | ALP [7]: 1763.8 IU/L | ALT [7]: 48.4 IU/L | AST [7]: 81.2 IU/L | CRE [7]: 0.2 mg/dL | Ca [7]: 10.4 mg/dL | Cl [7]: 105.8 meq/L | DBIL [7]: 0.01 mg/dL | GLC [7]: 170.2 mg/dL | K [7]: 4.2 meq/L | LDH [7]: 53.6 IU/L | Na [7]: 142.4 meq/L | PL [7]: 144.8 mg/dL | RALB [7]: 2.6 g/dL | TBIL [7]: 0.026 mg/dL | TC [7]: 78.4 mg/dL | TG [7]: 59 mg/dL | TP [7]: 5.3 g/dL | gamma-GTP [7]: 1.2 IU/L | TERMINAL_BW [8]: 195.5 g | Bas [8]: 0% | Eos [8]: 0.8% | Fbg [8]: 299 mg/dL | Ht [8]: 39.9% | Lym [8]: 76.6% | MCHC [8]: 33% | MCV [8]: 64.4 fL | Mono [8]: 4.4% | PT [8]: 15 s | Plat [8]: 125.7 x10_4/uL | RBC [8]: 621.2 x10_4/ul | WBC [8]: 83.8 x10_2/uL | KIDNEY_L [8]: 0.9 g | KIDNEY_R [8]: 0.9 g | KIDNEY_TOTAL [8]: 1.7 g | LIVER [8]: 9.3 g | ALP [8]: 2052.4 IU/L | ALT [8]: 41.2 IU/L | AST [8]: 66.6 IU/L | CRE [8]: 0.2 mg/dL | Ca [8]: 11.1 mg/dL | Cl [8]: 107.6 meq/L | DBIL [8]: 0.02 mg/dL | GLC [8]: 168.6 mg/dL | K [8]: 4.3 meq/L | LDH [8]: 87.2 IU/L | Na [8]: 144 meq/L | PL [8]: 144.8 mg/dL | RALB [8]: 2.7 g/dL | TBIL [8]: 0.018 mg/dL | TC [8]: 77.4 mg/dL | TG [8]: 108.6 mg/dL | TP [8]: 5.6 g/dL | gamma-GTP [8]: 1 IU/L
